Results taken from patent US20240277642A1, “POLYMERIZED VALPROIC ACID AND USE THEREOF” (UNIVERSITY OF TSUKUBA, priority 2021, published 2024).

Assay: toxicity evaluation by changes in body weight
Type: in vivo, mice
Conditions: intraperitoneal, 500 mg/kg for 5 days; FIG. 6
Method: To evaluate the toxicity of VPA and Nano^VPA, VPA and Nano^VPA were intraperitoneally administered at a dose of 500 mg/kg for 5 days, and changes in body weight of the mice were observed.

Question: For `CCCC(CCC)C(=O)O` [VPA, valproic acid], which “changes in body weight” value is on record?
Answer: The value was “a decrease in body weight”.
